21 compounds from PubChem BioAssay AID330 (DTP/NCI, 2004) can be followed below.

Several values for one entry are separate records, joined by “and”; a condition that tells them apart may be missing. Equal values may be shown once. Toxic doses and inconclusive results are not listed. Peptide text beside a SMILES is read from it.

The assay concerns P388 leukemia ip, CD2F1 mice, survival T/C. Put plainly: NCI In Vivo Anticancer Drug Screen. Data for tumor model P388 Leukemia (intraperitoneal) in CD2F1 (CDF1) mice. As to conditions: endpoint: median survival time, higher = longer survival. In a few lines: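 Mice carrying the transplanted tumor received test compound or vehicle. Survival was recorded in each group, and the value is the treated-group measurement divided by that of the vehicle-treated control group.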

Where [1] appears, read: dose: 50.0 mg/kg/injection, schedule: Q01DX005 (ip), vehicle: Klucel (hydroxypropylcellulose) (HPC).
[2] abbreviates: dose: 100.0 mg/kg/injection, schedule: Q01DX005 (ip), vehicle: Klucel (hydroxypropylcellulose) (HPC).
Where [3] appears, read: dose: 200.0 mg/kg/injection, schedule: Q01DX005 (ip), vehicle: Klucel (hydroxypropylcellulose) (HPC).
[4] abbreviates: dose: 60.0 mg/kg/injection, schedule: Q01DX005 (ip), vehicle: saline with Tween-80.
[5] abbreviates: dose: 120.0 mg/kg/injection, schedule: Q01DX005 (ip), vehicle: saline with Tween-80.
Setting [6] is: dose: 240.0 mg/kg/injection, schedule: Q01DX005 (ip), vehicle: saline with Tween-80.
The mark [7] stands for this setting: dose: 50.0 mg/kg/injection, schedule: Q01DX005 (ip), vehicle: saline with Tween-80.
[8] abbreviates: dose: 50.0 mg/kg/injection, schedule: Q01DX005 (ip), vehicle: saline.
The mark [9] stands for this setting: dose: 50.0 mg/kg/injection, schedule: Q01DX009 (ip), vehicle: Klucel (hydroxypropylcellulose) (HPC).
[10] abbreviates: dose: 100.0 mg/kg/injection, schedule: Q01DX009 (ip), vehicle: Klucel (hydroxypropylcellulose) (HPC).
The mark [11] stands for this setting: dose: 200.0 mg/kg/injection, schedule: Q01DX009 (ip), vehicle: Klucel (hydroxypropylcellulose) (HPC).
[12] abbreviates: dose: 100.0 mg/kg/injection, schedule: Q01DX005 (ip), vehicle: saline with Tween-80.
The mark [13] stands for this setting: dose: 200.0 mg/kg/injection, schedule: Q01DX005 (ip), vehicle: saline with Tween-80.
Where [14] appears, read: dose: 25.0 mg/kg/injection, schedule: Q04DX003 (ip), vehicle: saline with Tween-80.

Consider `N#CC(C(=O)O)c1ccc([N+](=O)[O-])cc1` (stereo not drawn), for which the T/C runs as follows: under setting [1], 105 % of control; under setting [2], 96 % of control; under setting [3], 99 % of control.

Consider `COC(=O)C1(CC(=O)c2cccc3ccccc23)NC(=S)NC(=O)C1C#N` (stereo not drawn), for which the T/C by setting is: under setting [4], 101 % of control; under setting [5], 101 % of control; under setting [6], 102 % of control.

For `COc1ccc(CC2C(=O)NC(C)C(=O)N(C)C3C(=O)N(C)C(Cc4ccc(O)c(c4)Oc4ccc(cc4)C3O)C(=O)NC(C)C(=O)NC(C)C(=O)N2C)cc1` (stereo not drawn) (tested in a mixture with another compound), the T/C by setting is: (dose: 1.0 mg/kg/injection, schedule: Q01DX009 (ip), vehicle: Klucel (hydroxypropylcellulose) (HPC)) 158 % of control; (dose: 2.0 mg/kg/injection, schedule: Q01DX009 (ip), vehicle: Klucel (hydroxypropylcellulose) (HPC)) 158 % of control; (dose: 4.0 mg/kg/injection, schedule: Q01DX009 (ip), vehicle: Klucel (hydroxypropylcellulose) (HPC)) 155 % of control; (dose: 250.0 micrograms/kg/injection, schedule: Q01DX009 (ip), vehicle: saline) 156 % of control; (dose: 500.0 micrograms/kg/injection, schedule: Q01DX009 (ip), vehicle: saline) 152 % of control; (dose: 1000.0 micrograms/kg/injection, schedule: Q01DX009 (ip), vehicle: saline) 158 % of control.

For the compound `Cc1cc(N=[N+]=[N-])c2ccc(F)cc2n1`, the T/C is 94 % of control under setting [4] and 92 % of control under setting [5].

As for `Cc1c2cccc1CSCc1cccc(c1C)CSC2`, the T/C was 99 % of control (dose: 50.0 mg/kg/injection, schedule: Q01DX009 (ip), vehicle: suspension in saline); 92 % of control (dose: 100.0 mg/kg/injection, schedule: Q01DX009 (ip), vehicle: suspension in saline); 100 % of control (dose: 200.0 mg/kg/injection, schedule: Q01DX009 (ip), vehicle: suspension in saline).

On to `CN(C)C1CC/C=C/CC/C=C/CC[C@H]1O` (mixture of isomers), for which the T/C was 100 % of control (dose: 12.5 mg/kg/injection, schedule: Q01DX005 (ip), vehicle: saline with Tween-80); 98 % of control (dose: 25.0 mg/kg/injection, schedule: Q01DX005 (ip), vehicle: saline with Tween-80); 99 % of control and 100 % of control under setting [7].

On to `CC(CCCCCCCC1CC(OS(=O)(=O)O)CCCCCCCCCCCC(OS(=O)(=O)O)CC(OS(=O)(=O)O)CCCCCCCCCCCCCC(=O)O1)OS(=O)(=O)O` (stereo not drawn) (tested in a mixture with another compound), for which the T/C reads like this: (dose: 25.0 micrograms/kg/injection, schedule: Q01DX005 (ip), vehicle: Klucel (hydroxypropylcellulose) (HPC)) 98 % of control; (dose: 50.0 micrograms/kg/injection, schedule: Q01DX005 (ip), vehicle: Klucel (hydroxypropylcellulose) (HPC)) 103 % of control; (dose: 100.0 micrograms/kg/injection, schedule: Q01DX005 (ip), vehicle: Klucel (hydroxypropylcellulose) (HPC)) 97 % of control; (dose: 200.0 micrograms/kg/injection, schedule: Q01DX005 (ip), vehicle: Klucel (hydroxypropylcellulose) (HPC)) 97 % of control.

In the case of `CC(=O)Nc1ccc(S(=O)(=O)Oc2noc3ccccc23)cc1`, the T/C was 108 % of control under setting [1], 96 % of control under setting [2] and 102 % of control under setting [3].

Regarding `N#C[C@H]1O[C@H]1c1ccc[n+]([O-])c1`, the T/C reads like this: (dose: 12.5 mg/kg/injection, schedule: Q01DX005 (ip), vehicle: saline) 107 % of control; (dose: 25.0 mg/kg/injection, schedule: Q01DX005 (ip), vehicle: saline) 102 % of control; under setting [8], 103 % of control and 115 % of control.

As to `COC1CCC(/C=C(\C#N)C2CCC(OC)CC2)CC1` (stereo not drawn), the T/C is, setting by setting: (dose: 25.0 mg/kg/injection, schedule: Q01DX009 (ip), vehicle: Klucel (hydroxypropylcellulose) (HPC)) 107 % of control; under setting [9], 100 % of control; under setting [10], 96 % of control; under setting [11], 92 % of control.

`COc1ccc(/C=C\Cc2cc3c(cc2OCCO)OCO3)cc1`: the T/C runs as follows: under setting [4], 101 % of control; under setting [5], 94 % of control; under setting [6], 98 % of control.

For the compound `N#CC1C(c2ccc(Cl)cc2)C(C(N)=O)C(=O)NC1(O)c1ccccc1` (stereo not drawn), the T/C is, setting by setting: (dose: 100.0 mg/kg/injection, schedule: Q04DX002 (ip), vehicle: Klucel (hydroxypropylcellulose) (HPC)) 100 % of control; (dose: 200.0 mg/kg/injection, schedule: Q04DX002 (ip), vehicle: Klucel (hydroxypropylcellulose) (HPC)) 99 % of control; (dose: 400.0 mg/kg/injection, schedule: Q04DX002 (ip), vehicle: Klucel (hydroxypropylcellulose) (HPC)) 98 % of control.

For the compound `O=C(c1ccccc1)C1(c2ccccc2)CCN(Cc2ccccc2)CC1`, the T/C (dose: 100.0 mg/kg/injection, schedule: Q04DX002 (ip), vehicle: saline with Tween-80) is 93 % of control; the T/C (dose: 200.0 mg/kg/injection, schedule: Q04DX002 (ip), vehicle: saline with Tween-80) was 86 % of control; the T/C (dose: 400.0 mg/kg/injection, schedule: Q04DX002 (ip), vehicle: saline with Tween-80) is 94 % of control.

Take `Cc1cc2c(=O)cc(-c3ccc([N+](=O)[O-])cc3)oc2c(C#N)c1C`: the T/C is 92 % of control (dose: 60.0 mg/kg/injection, schedule: Q01DX005 (ip), vehicle: Klucel (hydroxypropylcellulose) (HPC)); 94 % of control (dose: 120.0 mg/kg/injection, schedule: Q01DX005 (ip), vehicle: Klucel (hydroxypropylcellulose) (HPC)); 87 % of control (dose: 240.0 mg/kg/injection, schedule: Q01DX005 (ip), vehicle: Klucel (hydroxypropylcellulose) (HPC)).

In the case of `COc1ccc(/C(CC2(O)C(=O)Nc3ccccc32)=N\NC(=O)NN)cc1O` (stereo not drawn), the T/C runs as follows: under setting [7], 101 % of control; under setting [12], 107 % of control; under setting [13], 100 % of control.

`C=CCC1CCSC1=O` (stereo not drawn): the T/C under setting [14] was 109 % of control.

For the compound `CCCCCCCCCCCCCCCC(=O)OCC(=O)OC`, the T/C reads like this: under setting [9], 101 % of control; under setting [10], 93 % of control; under setting [11], 93 % of control.

As to `O=[N+]([O-])c1ccsc1SSc1sccc1[N+](=O)[O-]`, the T/C reads like this: under setting [14], 102 % of control; (dose: 50.0 mg/kg/injection, schedule: Q04DX003 (ip), vehicle: saline with Tween-80) 102 % of control; (dose: 100.0 mg/kg/injection, schedule: Q01DX001 (ip), vehicle: Klucel (hydroxypropylcellulose) (HPC)) 102 % of control; (dose: 100.0 mg/kg/injection, schedule: Q04DX003 (ip), vehicle: saline with Tween-80) 100 % of control; (dose: 200.0 mg/kg/injection, schedule: Q01DX001 (ip), vehicle: Klucel (hydroxypropylcellulose) (HPC)) 102 % of control; (dose: 400.0 mg/kg/injection, schedule: Q01DX001 (ip), vehicle: Klucel (hydroxypropylcellulose) (HPC)) 96 % of control.

For `NC(CCC(=O)O)C(=O)NC(Cc1ccc(O)cc1)C(=O)NC(CCC(=O)O)C(=O)O` (stereo not drawn) (H-Glu-Tyr-Glu-OH; configuration not given here), the T/C was 93 % of control under setting [1], 100 % of control under setting [2] and 98 % of control under setting [3].

Regarding `CC(=O)N(O)c1ccc2c(c1)Cc1cc(F)ccc1-2`, the T/C is, setting by setting: under setting [7], 110 % of control and 121 % of control; under setting [12], 120 % of control; under setting [13], 123 % of control; (dose: 400.0 mg/kg/injection, schedule: Q01DX005 (ip), vehicle: saline with Tween-80) 116 % of control.

With `NCC(O)c1ccc(Nc2ccnc3cc(Cl)ccc23)cc1` (stereo not drawn), the T/C is 114 % of control under setting [8] and 105 % of control (dose: 100.0 mg/kg/injection, schedule: Q01DX005 (ip), vehicle: saline).
